Structures can show the parent of a compound that is named as a salt.

The results in this text go back to US7332501B2, “Indol-3-yl-carbonyl-spiro-piperidine derivatives as V1a receptor antagonists” (Hoffmann-La Roche Inc., priority 2005, dated 2008).

T1 sequence (P37288 whole entry): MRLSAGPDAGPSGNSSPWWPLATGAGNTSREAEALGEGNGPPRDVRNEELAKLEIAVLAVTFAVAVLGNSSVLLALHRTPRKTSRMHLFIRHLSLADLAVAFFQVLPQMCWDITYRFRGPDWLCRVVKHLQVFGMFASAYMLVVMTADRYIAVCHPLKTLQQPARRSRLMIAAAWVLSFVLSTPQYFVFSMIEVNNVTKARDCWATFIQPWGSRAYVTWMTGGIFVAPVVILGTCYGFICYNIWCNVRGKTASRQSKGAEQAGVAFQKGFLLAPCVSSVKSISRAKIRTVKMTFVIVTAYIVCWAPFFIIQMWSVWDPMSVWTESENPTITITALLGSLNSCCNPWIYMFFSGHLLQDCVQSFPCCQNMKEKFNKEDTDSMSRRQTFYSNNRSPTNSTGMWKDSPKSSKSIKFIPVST

This assay concerns the target T1, human V1a receptor (Homo sapiens, UniProt P37288).
T1 construct: expressed in transfected cells; host or cells: HEK293 cells, transiently transfected; cell membranes
Briefly: human V1a receptor binding (3H-Vasopressin SPA, HEK293 membranes). As to conditions: displacement of 4 nM 3H-Vasopressin, membranes of HEK293 cells transiently transfected with human V1a receptor; Ki from IC50 by Cheng-Prussoff. How it is done: The human V1a receptor was cloned by RT-PCR from total human liver RNA. The coding sequence was subcloned in an expression vector after sequencing to confirm the identity of the amplified sequence. […] Cell membranes were prepared from HEK293 cells transiently transfected with the expression vector and grown in 20 liter fermenters with the following protocol.
50 g cells are resuspended in 30 ml freshly prepared ice cold Lysis buffer (50 mM HEPES, 1 mM EDTA, 10 mM MgCl2 adjusted to pH=7.4+complete cocktail of protease inhibitor (Roche Diagnostics)). The cells are homogenized with Polytron for 1 min and sonicated on ice for 2×2 minutes at 80% intensity (Vibracell sonicator). The preparation is centrifuged 20 min at 500 g at 4° C., the pellet is discarded and the supernatant centrifuged 1 hour at 43,000 g at 4° C. (19,000 rpm). The pellet is resuspended in 12.5 ml Lysis buffer+12.5 ml Sucrose 20% and homogenized using a Polytron for 1-2 min. The protein concentration is determined by the Bradford method and aliquots are stored at −80° C. until use. For binding studies 60 mg Yttrium silicate SPA beads (Amersham) are mixed with an aliquot of membrane in binding buffer (50 mM Tris, 120 mM NaCl, 5 mM KCl, 2 mM CaCl2, 10 mM MgCl2) for 15 minutes with mixing. 50 ul of bead/membrane mixture is then added to each well of a 96 well plate, followed by 50 ul of 4 nM 3H-Vasopressin (American Radiolabeled Chemicals). For total binding measurement 100 ul of binding buffer are added to the respective wells, for non-specific binding 100 ul of […] cold vasopressin and for compound testing 100 ul of a serial dilution of each compound in 2% DMSO. The plate is incubated 1 h at room temperature, centrifuged 1 min at 1000 g and counted on a Packard Top-Count. Non-specific binding counts are subtracted from each well and data is normalized to the maximum specific binding set at 100%. To calculate an IC 50 the curve is fitted using a non-linear regression model (XLfit), and the Ki is calculated using the Cheng-Prussoff equation.
What is called Ki is a measure of affinity in units of concentration, obtained from inhibition or displacement. In the case of `Cc1cc(C)cc(Cn2c(C)c(C(=O)N3CCC4(CC3)OCc3ccccc34)c3ccccc32)c1` [Example 49, 1′-{[1-(3,5-dimethylbenzyl)-2-methyl-1H-indol-3-yl]carbonyl}-3H-spiro[2-benzofuran-1,4′-piperidine]], the affinity corresponds to a Ki of 2.4 nM.
In turn, `CC1CCN(C(=O)c2[nH]c3cc(Cl)ccc3c2C(=O)N2CCC3(CC2)OC(=O)c2cc(F)ccc23)CC1` [Example 24, 1′-({6-chloro-2-[(4-methylpiperidin-1-yl)carbonyl]-1H-indol-3-yl}carbonyl)-5-fluoro-3H-spiro[2-benzofuran-1,4′-piperidin]-3-one] yielded a Ki of 33.1 nM.
The result for `Cc1noc(C)c1Cn1cc(C(=O)N2CCC3(CC2)OC(=O)c2cc(F)ccc23)c2ccc(Cl)cc21` [Example 186, 1′-({6-Chloro-1-[(3,5-dimethylisoxazol-4-yl)methyl]-1H-indol-3-yl}carbonyl)-5-fluoro-3H-spiro[2-benzofuran-1,4′-piperidin]-3-one] reads 2.9 nM; that for `O=C(c1cn(Cc2ccccc2)c2ccccc12)N1CCC2(CC1)OCc1ccccc12` [Example 68, 1′-[(1-benzyl-1H-indol-3-yl)carbonyl]-3H-spiro[2-benzofuran-1,4′-piperidine]], 6.9 nM.
`O=C(c1cn(CCn2cccc2)c2cc(Cl)ccc12)N1CCC2(CC1)COc1ccccc12` [Example 86, 1′-({6-chloro-1-[2-(1H-pyrrol-1-yl)ethyl]-1H-indol-3-yl}carbonyl)spiro[1-benzofuran-3,4′-piperidine]]: affinity was put at a Ki of 13.2 nM.
In turn, `O=C1OC2(CCN(C(=O)c3cn(C(=O)c4cccc(-c5ccccc5)c4)c4cc(Cl)ccc34)CC2)c2ccccc21` [Example 158, 1′-{[1-(Biphenyl-3-ylcarbonyl)-6-chloro-1H-indol-3-yl]carbonyl}-3H-spiro[2-benzofuran-1,4′-piperidin]-3-one] gave a Ki of 38.7 nM.
As for `COCC1(Cn2cc(C(=O)N3CCC4(CC3)OCc3ccccc34)c3ccc(Cl)cc32)CC1` [Example 244, 1′-[(6-Chloro-1-{[1-(methoxymethyl)cyclopropyl]methyl}-1H-indol-3-yl)carbonyl]-3H-spiro[2-benzofuran-1,4′-piperidine]], the figure is 2.6 nM.
In the case of `O=C(c1cn(CC2CNCCO2)c2cc(Cl)ccc12)N1CCC2(CC1)OCc1ccccc12` (centres unmarked) [Example 248, 1′-{[6-Chloro-1-(morpholin-2-ylmethyl)-1H-indol-3-yl]carbonyl}-3H-spiro[2-benzofuran-1,4′-piperidine]hydrochloride], the Ki was 1.5 nM.
Turning to `NC(=O)Cn1cc(C(=O)N2CCC3(CC2)OCc2ccccc23)c2ccc(Cl)cc21` [Example 250, 2-[6-Chloro-3-(1′H,3H-spiro[2-benzofuran-1,4′-piperidin]-1′-ylcarbonyl)-1H-indol-1-yl]acetamide], the affinity, expressed as Ki, was 4.1 nM.
Take `O=C1OC2(CCN(C(=O)c3cn(CC(=O)N4CCCCC4)c4cc(Cl)ccc34)CC2)c2ccccc21` [Example 104, 1′-{[6-Chloro-1-(2-oxo-2-piperidin-1-ylethyl)-1H-indol-3-yl]carbonyl}-3H-spiro[2-benzofuran-1,4′-piperidin]-3-one]: the Ki turned out to be 1.3 nM.
The compound `O=C(c1cn(Cc2ccncc2)c2cc(Cl)ccc12)N1CCC2(CC1)OCc1ccccc12` [Example 228] gave a Ki of 1.5 nM.
As for `O=C(c1cn(Cc2cnccn2)c2cc(Cl)ccc12)N1CCC2(CC1)OCc1ccccc12` [Example 234, 1′-{[6-Chloro-1-(pyrazin-2-ylmethyl)-1H-indol-3-yl]carbonyl}-3H-spiro[2-benzofuran-1,4′-piperidine]], the figure is 1.8 nM; as for `NCCNC(=O)Cn1cc(C(=O)N2CCC3(CC2)OCc2ccccc23)c2ccc(Cl)cc21` [Example 252, N-(2-Aminoethyl)-2-[6-chloro-3-(1′H,3H-spiro[2-benzofuran-1,4′-piperidin]-1′-ylcarbonyl)-1H-indol-1-yl]acetamide], 2.3 nM.
As for `CN(C)C(=O)c1[nH]c2cc(Cl)ccc2c1C(=O)N1CCC2(CC1)OC(=O)c1cc(F)ccc12` [Example 29, 6-chloro-3-[(5-fluoro-3-oxo-1′H,3H-spiro[2-benzofuran-1,4′-piperidin]-1′-yl)carbonyl]-N,N-dimethyl-1H-indole-2-carboxamide], the figure is 10.1 nM; as for `Cc1[nH]c2ccccc2c1C(=O)N1CCC2(CC1)OCc1ccccc12` [Example 43, 1′-[(2-methyl-1H-indol-3-yl)carbonyl]-3H-spiro[2-benzofuran-1,4′-piperidine]], 11 nM; as for `Cc1cc(Cn2cc(C(=O)N3CCC4(CC3)OC(=O)c3cc(F)ccc34)c3ccc(Cl)cc32)ccn1` [Example 161, 1′-({6-Chloro-1-[(2-methylpyridin-4-yl)methyl]-1H-indol-3-yl}carbonyl)-5-fluoro-3H-spiro[2-benzofuran-1,4′-piperidin]-3-one], 2.2 nM.
The result for `Cc1c(C(=O)N2CCC3(CC2)OCc2ccccc23)c2ccccc2n1Cc1ccc(C#N)cc1` [Example 51, 4-{[2-methyl-3-(1′H,3H-spiro[2-benzofuran-1,4′-piperidin]-1′-ylcarbonyl)-1H-indol-1-yl]methyl}benzonitrile] reads 5.9 nM; that for `O=C(c1cn(CCC2CCOCC2)c2cc(Cl)ccc12)N1CCC2(CC1)OCc1ccccc12` [Example 246, 1′-({6-Chloro-1-[2-(tetrahydro-2H-pyran-4-yl)ethyl]-1H-indol-3-yl}carbonyl)-3H-spiro[2-benzofuran-1,4′-piperidine]], 1.9 nM.
The compound `O=C1OC2(CCN(C(=O)c3cn(Cc4cccnc4)c4cc(Cl)ccc34)CC2)c2ccccc21` [Example 172, 1′-{[6-Chloro-1-(pyridin-3-ylmethyl)-1H-indol-3-yl]carbonyl}-3H-spiro[2-benzofuran-1,4′-piperidin]-3-one] gave a Ki of 3 nM.
`O=C1OC2(CCN(C(=O)c3cn(Cc4cccc(F)c4)c4cc(Cl)ccc34)CC2)c2ccc(F)cc21` [Example 143, 1′-{[6-Chloro-1-(3-fluorobenzyl)-1H-indol-3-yl]carbonyl}-5-fluoro-3H-spiro[2-benzofuran-1,4′-piperidin]-3-one]: the Ki stood at 1 nM.
`Cc1c(C(=O)N2CCC3(CC2)OCc2ccccc23)c2ccccc2n1Cc1ccccc1OC(F)(F)F` [Example 48, 1′-({2-methyl-1-[2-(trifluoromethoxy)benzyl]-1H-indol-3-yl}carbonyl)-3H-spiro[2-benzofuran-1,4′-piperidine]] displayed a Ki of 2.6 nM.
`O=C1OC2(CCN(C(=O)c3cn(Cc4cc(F)cc(F)c4)c4cc(Cl)ccc34)CC2)c2ccccc21` [Example 133, 1′-{[6-Chloro-1-(3,5-difluorobenzyl)-1H-indol-3-yl]carbonyl}-3H-spiro[2-benzofuran-1,4′-piperidin]-3-one] showed a Ki of 0.9 nM.
As for `CC(C)(C)OC(=O)N1CCOC(Cn2cc(C(=O)N3CCC4(CC3)OC(=O)c3ccccc34)c3ccc(Cl)cc32)C1` (centres unmarked) [Example 197, tert-Butyl 2-({6-chloro-3-[(3-oxo-1′H,3H-spiro[2-benzofuran-1,4′-piperidin]-1′-yl)carbonyl]-1H-indol-1-yl}methyl)morpholine-4-carboxylate], the figure is 3 nM; as for `CNC(=O)Cn1cc(C(=O)N2CCC3(CC2)OC(=O)c2cc(F)ccc23)c2ccc(Cl)cc21` [Example 116, 2-{6-Chloro-3-[(5-fluoro-3-oxo-1′H,3H-spiro[2-benzofuran-1,4′-piperidin]-1′-yl)carbonyl]-1H-indol-1-yl}-N-methylacetamide], 1.7 nM; as for `COc1ccc2c(c1)C(=O)OC21CCN(C(=O)c2c(C)n(Cc3ccccc3)c3ccccc23)CC1` [Example 13, 1′-[(1-benzyl-2-methyl-1H-indol-3-yl)carbonyl]-5-methoxy-3H-spiro[2-benzofuran-1,4′-piperidin]-3-one], 9.5 nM.
As for `CC(=O)NCCn1cc(C(=O)N2CCC3(CC2)OCc2ccccc23)c2ccc(Cl)cc21` [Example 270, N-{2-[6-Chloro-3-(1′H,3H-spiro[2-benzofuran-1,4′-piperidin]-1′-ylcarbonyl)-1H-indol-1-yl]ethyl}acetamide], the figure is 1.3 nM.
As to `N#CCCn1cc(C(=O)N2CCC3(CC2)OC(=O)c2ccccc23)c2ccc(Cl)cc21` [Example 35, 3-{6-chloro-3-[(3-oxo-1′H,3H-spiro[2-benzofuran-1,4′-piperidin]-1′-yl)carbonyl]-1H-indol-1-yl}propanenitrile], the Ki was determined as 2.5 nM.
As for `O=C(c1cn(-c2cc(F)cc(F)c2)c2cc(Cl)ccc12)N1CCC2(CC1)OCc1ccccc12` [Example 222], the figure is 4 nM.
In turn, `Cc1c(C(=O)N2CCC3(CCc4ccccc43)CC2)c2ccccc2n1Cc1ccccc1` [Example 2, 1′-[(1-benzyl-2-methyl-1H-indol-3-yl)carbonyl]-2,3-dihydrospiro[indene-1,4′-piperidine]] registered a Ki of 16.2 nM.
